Laboratory results: patent publication US20260262643A1, “HERBICIDAL BENZOXAZINES” (FMC CORPORATION, priority 2022, published 2026)

Columns and labels:
ducksalad = experiment: Test D flooded paddy test; assay type: in vivo, Heteranthera limosa; details: 250 g ai/ha, applied to paddy water, visual rating after 13 to 14 days, scale 0 to 100 (0 no effect, 100 complete control)
How it was run: (§1)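 Compounds go straight into paddy water over 2-leaf plants in pots flooded to 3 cm. Greenhouse holding lasts 13 to 14 days. Injury is scored by eye against controls from 0 (none) to 100 (complete control).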

barnyardgrass [1] = experiment: Test C postemergence; assay type: in vivo, Echinochloa crusgalli; details: 10 days, 0 to 100 scale (0 no effect, 100 complete control)
How it was run: (§2)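 Greenhouse herbicide screen, 10-day duration. Test chemicals in solvent/surfactant blend were sprayed onto soil at sowing (pre) or onto 2–10 cm seedlings at one to two leaves (post); injury scored visually against controls, 0 no effect to 100 complete control.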

oat, wild [2] = experiment: Test C preemergence; assay type: in vivo, Avena fatua; details: preemergence, 0 to 100 scale (0 no effect, 100 complete control)
How it was run: as §2

ragweed [3] = experiment: Test C preemergence; assay type: in vivo, Ambrosia artemisiifolia; details: preemergence, 0 to 100 scale (0 no effect, 100 complete control)
How it was run: as §2

blackgrass [4] = experiment: Test C preemergence; assay type: in vivo, Alopecurus myosuroides; details: preemergence, 0 to 100 scale (0 no effect, 100 complete control)
How it was run: as §2

barnyardgrass [5] = experiment: Test C preemergence; assay type: in vivo, Echinochloa crusgalli; details: preemergence, 0 to 100 scale (0 no effect, 100 complete control)
How it was run: as §2

horseweed = experiment: Test C postemergence; assay type: in vivo, Erigeron canadensis; details: 10 days, 0 to 100 scale (0 no effect, 100 complete control)
How it was run: as §2

oat, wild [6] = experiment: Test C postemergence; assay type: in vivo, Avena fatua; details: 10 days, 0 to 100 scale (0 no effect, 100 complete control)
How it was run: as §2

pigweed, palmer [7] = experiment: Test C postemergence; assay type: in vivo, Amaranthus palmeri; details: 10 days, 0 to 100 scale (0 no effect, 100 complete control)
How it was run: as §2

blackgrass [8] = experiment: Test C postemergence; assay type: in vivo, Alopecurus myosuroides; details: 10 days, 0 to 100 scale (0 no effect, 100 complete control)
How it was run: as §2

kochia [9] = experiment: Test C preemergence; assay type: in vivo, Bassia scoparia; details: preemergence, 0 to 100 scale (0 no effect, 100 complete control)
How it was run: as §2

wheat [10] = experiment: Test C postemergence; assay type: in vivo, Triticum aestivum; details: 10 days, 0 to 100 scale (0 no effect, 100 complete control)
How it was run: as §2

galium = experiment: Test C postemergence; assay type: in vivo, Galium aparine; details: 10 days, 0 to 100 scale (0 no effect, 100 complete control)
How it was run: as §2

pigweed, palmer [11] = experiment: Test C preemergence; assay type: in vivo, Amaranthus palmeri; details: preemergence, 0 to 100 scale (0 no effect, 100 complete control)
How it was run: as §2

corn [12] = experiment: Test C preemergence; assay type: in vivo, Zea mays; details: preemergence, 0 to 100 scale (0 no effect, 100 complete control)
How it was run: as §2

barnyardgrass [13] = experiment: Test D flooded paddy test; assay type: in vivo, Echinochloa crus-galli; details: 250 g ai/ha, applied to paddy water, visual rating after 13 to 14 days, scale 0 to 100 (0 no effect, 100 complete control)
How it was run: as §1

corn [14] = experiment: Test C postemergence; assay type: in vivo, Zea mays; details: 10 days, 0 to 100 scale (0 no effect, 100 complete control)
How it was run: as §2

wheat [15] = experiment: Test C preemergence; assay type: in vivo, Triticum aestivum; details: preemergence, 0 to 100 scale (0 no effect, 100 complete control)
How it was run: as §2

soybean [16] = experiment: Test C postemergence; assay type: in vivo, Glycine max; details: 10 days, 0 to 100 scale (0 no effect, 100 complete control)
How it was run: as §2

ryegrass, Italian [17] = experiment: Test C preemergence; assay type: in vivo, Lolium multiflorum; details: preemergence, 0 to 100 scale (0 no effect, 100 complete control)
How it was run: as §2

ragweed [18] = experiment: Test C postemergence; assay type: in vivo, Ambrosia artemisiifolia; details: 10 days, 0 to 100 scale (0 no effect, 100 complete control)
How it was run: as §2

sedge, umbrella = experiment: Test D flooded paddy test; assay type: in vivo, Cyperus difformis; details: 250 g ai/ha, applied to paddy water, visual rating after 13 to 14 days, scale 0 to 100 (0 no effect, 100 complete control)
How it was run: as §1

ryegrass, Italian [19] = experiment: Test C postemergence; assay type: in vivo, Lolium multiflorum; details: 10 days, 0 to 100 scale (0 no effect, 100 complete control)
How it was run: as §2

green foxtail [20] = experiment: Test C preemergence; assay type: in vivo, Setaria viridis; details: preemergence, 0 to 100 scale (0 no effect, 100 complete control)
How it was run: as §2

rice = experiment: Test D flooded paddy test; assay type: in vivo, Oryza sativa; details: 250 g ai/ha, applied to paddy water, visual rating after 13 to 14 days, scale 0 to 100 (0 no effect, 100 complete control)
How it was run: as §1

kochia [21] = experiment: Test C postemergence; assay type: in vivo, Bassia scoparia; details: 10 days, 0 to 100 scale (0 no effect, 100 complete control)
How it was run: as §2

green foxtail [22] = experiment: Test C postemergence; assay type: in vivo, Setaria viridis; details: 10 days, 0 to 100 scale (0 no effect, 100 complete control)
How it was run: as §2

soybean [23] = experiment: Test C preemergence; assay type: in vivo, Glycine max; details: preemergence, 0 to 100 scale (0 no effect, 100 complete control)
How it was run: as §2

COC[C@H]1CN(C(=O)c2cc(-n3cnc(C(C)C)n3)ccc2OC)c2cccc(Cl)c2O1 [Compound 314]
Plant response rating, Ducksalad (Flood) (ducksalad): 85 | Plant response rating, Barnyardgrass (barnyardgrass [1]; 500 g ai/ha, postemergence): 60 | Plant response rating, Barnyardgrass (barnyardgrass [1]; Postemergence, 125 g ai/ha): 30 | Oat, Wild plant response rating (oat, wild [2]; 500 g ai/ha): 80 | Oat, Wild plant response rating (oat, wild [2]; Test C, 125 g ai/ha): 60 | Ragweed plant response rating (ragweed [3]; 500 g ai/ha): 70 | Ragweed plant response rating (ragweed [3]; Test C, 125 g ai/ha): 50 | Blackgrass plant response rating (blackgrass [4]; 500 g ai/ha): 70 | Blackgrass plant response rating (blackgrass [4]; Test C, 125 g ai/ha): 20 | Barnyardgrass plant response rating (barnyardgrass [5]; 500 g ai/ha): 100 | Barnyardgrass plant response rating (barnyardgrass [5]; Test C, 125 g ai/ha): 70 | Plant response rating, Horseweed (horseweed; 500 g ai/ha, postemergence): 90 | Plant response rating, Horseweed (horseweed; Postemergence, 125 g ai/ha): 100 | Plant response rating, Oat, Wild (oat, wild [6]; 500 g ai/ha, postemergence): 40 | Plant response rating, Oat, Wild (oat, wild [6]; Postemergence, 125 g ai/ha): 40 | Plant response rating, Pigweed, Palmer (pigweed, palmer [7]; 500 g ai/ha, postemergence): 90 | Plant response rating, Pigweed, Palmer (pigweed, palmer [7]; Postemergence, 125 g ai/ha): 60 | Plant response rating, Blackgrass (blackgrass [8]; 500 g ai/ha, postemergence): 100 | Plant response rating, Blackgrass (blackgrass [8]; Postemergence, 125 g ai/ha): 80 | Kochia plant response rating (kochia [9]; 500 g ai/ha): 100 | Kochia plant response rating (kochia [9]; Test C, 125 g ai/ha): 90 | Plant response rating, Wheat (wheat [10]; 500 g ai/ha, postemergence): 30 | Plant response rating, Wheat (wheat [10]; Postemergence, 125 g ai/ha): 20 | Plant response rating, Galium (galium; 500 g ai/ha, postemergence): 100 | Plant response rating, Galium (galium; Postemergence, 125 g ai/ha): 100 | Pigweed, Palmer plant response rating (pigweed, palmer [11]; 500 g ai/ha): 100 | Pigweed, Palmer plant response rating (pigweed, palmer [11]; Test C, 125 g ai/ha): 100 | Corn plant response rating (corn [12]; 500 g ai/ha): 0 | Corn plant response rating (corn [12]; Test C, 125 g ai/ha): 0 | Plant response rating, Barnyardgrass (Flood) (barnyardgrass [13]): 15 | Plant response rating, Corn (corn [14]; 500 g ai/ha, postemergence): 90 | Plant response rating, Corn (corn [14]; Postemergence, 125 g ai/ha): 80 | Wheat plant response rating (wheat [15]; 500 g ai/ha): 40 | Wheat plant response rating (wheat [15]; Test C, 125 g ai/ha): 20 | Plant response rating, Soybean (soybean [16]; 500 g ai/ha, postemergence): 100 | Plant response rating, Soybean (soybean [16]; Postemergence, 125 g ai/ha): 100 | Ryegrass, Italian plant response rating (ryegrass, Italian [17]; 500 g ai/ha): 100 | Ryegrass, Italian plant response rating (ryegrass, Italian [17]; Test C, 125 g ai/ha): 100 | Plant response rating, Ragweed (ragweed [18]; 500 g ai/ha, postemergence): 90 | Plant response rating, Ragweed (ragweed [18]; Postemergence, 125 g ai/ha): 80 | Plant response rating, Sedge, Umbrella (Flood) (sedge, umbrella): 100 | Plant response rating, Ryegrass, Italian (ryegrass, Italian [19]; 500 g ai/ha, postemergence): 90 | Plant response rating, Ryegrass, Italian (ryegrass, Italian [19]; Postemergence, 125 g ai/ha): 80 | Foxtail, Green plant response rating (green foxtail [20]; 500 g ai/ha): 100 | Foxtail, Green plant response rating (green foxtail [20]; Test C, 125 g ai/ha): 100 | Plant response rating, Rice (Flood) (rice): 15 | Plant response rating, Kochia (kochia [21]; 500 g ai/ha, postemergence): 90 | Plant response rating, Kochia (kochia [21]; Postemergence, 125 g ai/ha): 90 | Plant response rating, Foxtail, Green (green foxtail [22]; 500 g ai/ha, postemergence): 90 | Plant response rating, Foxtail, Green (green foxtail [22]; Postemergence, 125 g ai/ha): 60 | Soybean plant response rating (soybean [23]; 500 g ai/ha): 90 | Soybean plant response rating (soybean [23]; Test C, 125 g ai/ha): 40
